Data taken from patent US10508120B2, “TYK2 inhibitors and uses thereof” (Nimbus Lakshmi, Inc., priority 2017, dated 2019).

Biological target: human TYK2 (JH2domain-pseudokinase) (Homo sapiens (Human), UniProt P29597)
Test: TYK2 JH2 Domain Binding Assay (KINOMEscan)
Description: Binding constants for compounds of the present invention against the JH2 domain were determined by the following protocol for a KINOMEscan® assay (DiscoveRx). A fusion protein of a partial length construct of human TYK2 (JH2domain-pseudokinase) (amino acids G556 to D888 based on reference sequence NP_003322.3) and the DNA binding domain of NFkB was expressed in transiently transfected HEK293 cells. From these HEK 293 cells, extracts were prepared in M-PER extraction buffer (Pierce) in the presence of Protease Inhibitor Cocktail Complete (Roche) and Phosphatase Inhibitor Cocktail Set II (Merck) per manufacturers' instructions. The TYK2 (JH2domain-pseudokinase) fusion protein was labeled with a chimeric double-stranded DNA tag containing the NFkB binding site (5′-[…]-3′) fused to an amplicon for qPCR readout, which was added directly to the expression extract (the final concentration of DNA-tag in the binding reaction is 0.1 nM).
The liganded beads were blocked with excess biotin and washed with blocking buffer (SeaBlock (Pierce), 1% BSA, 0.05% Tween 20, 1 mM DTT) to remove unbound ligand and to reduce nonspecific binding.
Extracts were used directly in binding assays without any enzyme purification steps at a ≥10,000-fold overall stock dilution (final DNA-tagged enzyme concentration <0.1 nM). Extracts were loaded with DNA-tag and diluted into the binding reaction in a two step process. First extracts were diluted 1:100 in 1× binding buffer (PBS/0.05% Tween 20/10 mM DTT/0.1% BSA/2 μg/ml sonicated salmon sperm DNA) containing 10 nM DNA-tag. This dilution was allowed to equilibrate at room temperature for 15 minutes and then subsequently diluted 1:100 in 1× binding buffer. […] Kds were determined using an 11-point 3-fold compound dilution series with three DMSO control points. […] The compounds were then diluted directly into the assays such that the final concentration of DMSO was 0.9%. All reactions performed in polypropylene 384-well plates. Each was a final volume of 0.02 mL. Assays were incubated with shaking for 1 hour at room temperature. Then the beads were pelleted and washed with wash buffer (1×PBS, 0.05% Tween 20) to remove displaced kinase and test compound. […] The qPCR protocol consisted of a 10 minute hot start at 95° C., followed by 35 cycles of 95° C. for 15 seconds, 60° C. for 1 minute.
Kds were determined using an 11-point 3-fold compound dilution series with three DMSO control points. […] The compounds were then diluted directly into the assays such that the final concentration of DMSO was 0.9%. The Kds were determined using a compound top concentration of 30,000 nM. Kd measurements were performed in duplicate.
Binding constants (Kds) were calculated with a standard dose-response curve using the Hill equation: […]
The Hill Slope was set to −1.

Chain of human TYK2 (JH2domain-pseudokinase) (P29597 556-888): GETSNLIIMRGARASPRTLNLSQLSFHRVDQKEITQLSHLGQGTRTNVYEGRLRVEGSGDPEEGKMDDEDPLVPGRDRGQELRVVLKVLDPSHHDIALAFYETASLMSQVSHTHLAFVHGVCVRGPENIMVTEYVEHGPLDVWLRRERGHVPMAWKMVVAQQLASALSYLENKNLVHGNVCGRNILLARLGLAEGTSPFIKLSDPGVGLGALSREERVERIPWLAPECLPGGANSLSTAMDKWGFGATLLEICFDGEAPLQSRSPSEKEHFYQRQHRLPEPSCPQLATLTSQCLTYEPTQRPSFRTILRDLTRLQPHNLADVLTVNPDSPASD

Compared with `CNc1cc(-c2cn([C@H]3CCCOC3)c3ncccc23)nc2c(C(=O)N[C@H]3COC[C@H]3O)cnn12` (mixture of isomers) [I-1251, N-(4-hydroxytetrahydrofuran-3-yl)-7-(methylamino)-5-(1-((S)-tetrahydro-2H-pyran-3-yl)-1H-pyrrolo[2,3-b]pyridin-3-yl)pyrazolo[1,5-a]pyrimidine-3-carboxamide], `CNc1cc(-c2cn([C@@H]3CCCOC3)c3ncccc23)nc2c(C(=O)N[C@@H]3COC[C@@H]3O)cnn12` [I-1184] is lower in Kd: 1 to 10 nM for the first, < 0.2 nM for the second. The second binds more tightly here.

First: CNc1cc(-c2cn([C@@H]3CCCOC3)c3ncccc23)nc2c(C(=O)NC3CCC3O)cnn12 (mixture of isomers) [I-1257, N-(2-hydroxycyclobutyl)-7-(methylamino)-5-(1-((R)-tetrahydro-2H-pyran-3-yl)-1H-pyrrolo[2,3-b]pyridin-3-yl)pyrazolo[1,5-a]pyrimidine-3-carboxamide]
Second: CNc1cc(-c2cn([C@@H]3CCCOC3)c3ncccc23)nc2c(C(=O)N[C@H]3COC[C@H]3O)cnn12 [I-1185]
The Kd of the first is lower: < 0.2 nM for the first, 1 to 10 nM for the second.

First: CNc1cc(-c2cn([C@H]3CCC[C@@H]3OC)c3ncccc23)nc2c(C(=O)NC3CCC3O)cnn12 (mixture of isomers) [I-1340, N-(2-hydroxycyclobutyl)-5-(1-((1S,2S)-2-methoxycyclopentyl)-1H-pyrrolo[2,3-b]pyridin-3-yl)-7-(methylamino)pyrazolo[1,5-a]pyrimidine-3-carboxamide]
Second: CNc1cc(-c2cn([C@@H]3CCC[C@H]3OC)c3ncccc23)nc2c(C(=O)NC3CCC3O)cnn12 (mixture of isomers) [I-1341, N-(2-hydroxycyclobutyl)-5-(1-((1R,2R)-2-methoxycyclopentyl)-1H-pyrrolo[2,3-b]pyridin-3-yl)-7-(methylamino)pyrazolo[1,5-a]pyrimidine-3-carboxamide]
The Kd of the first is lower: 1 to 10 nM for the first, > 10 nM for the second. The first binds more tightly here.

First: CNc1cc(Nc2cccn([C@H]3CCCOC3)c2=O)nc2c(C(=O)NC3CC3OC)cnn12 (mixture of isomers) [I-1415, N-(2-methoxycyclopropyl)-7-(methylamino)-5-((2-oxo-1-((S)-tetrahydro-2H-pyran-3-yl)-1,2-dihydropyridin-3-yl)amino)pyrazolo[1,5-a]pyrimidine-3-carboxamide]
Second: CNc1cc(Nc2cccn([C@@H]3CCC[C@H](O)C3)c2=O)nc2c(C(=O)N[C@@H]3CC[C@H]3OC)cnn12 [I-1190]
The Kd of the first is higher: 0.2 to 1 nM for the first, < 0.2 nM for the second. The second binds more tightly here.

`CNc1cc(Nc2cccn(C3CCOCC3)c2=O)nc2c(C(=O)N[C@H]3CCC[C@]3(C)O)cnn12` (stereo in doubt) [I-1254, N-(2-hydroxy-2-methylcyclopentyl)-7-(methylamino)-5-((2-oxo-1-(tetrahydro-2H-pyran-4-yl)-1,2-dihydropyridin-3-yl)amino)pyrazolo[1,5-a]pyrimidine-3-carboxamide] and `CNc1cc(Nc2cccn(C3CCOCC3)c2=O)nc2c(C(=O)N[C@@H]3CCCC[C@@]3(C)O)cnn12` [I-1196] fall in the same range of Kd: 0.2 to 1 nM for the first, 0.2 to 1 nM for the second.

First: CNc1cc(Nc2cccn(C3CCOCC3)c2=O)nc2c(C(=O)N[C@@H]3CCC[C@@](C)(OC)C3)cnn12 (stereo in doubt) [I-1274, N-(3-methoxy-3-methylcyclohexyl)-7-(methylamino)-5-((2-oxo-1-(tetrahydro-2H-pyran-4-yl)-1,2-dihydropyridin-3-yl)amino)pyrazolo[1,5-a]pyrimidine-3-carboxamide]
Second: CNc1cc(Nc2cccn(C3CCOCC3)c2=O)nc2c(C(=O)N[C@H]3CCC[C@](C)(OC)C3)cnn12 [I-1200]
The Kd of the first is lower: < 0.2 nM for the first, 0.2 to 1 nM for the second. The first binds more tightly here.

`CNc1cc(Nc2cccn(C3CCOCC3)c2=O)nc2c(C(=O)N[C@@H]3CC[C@@H](OC)C3)cnn12` (stereo in doubt) [I-1334, N-(3-methoxycyclopentyl)-7-(methylamino)-5-((2-oxo-1-(tetrahydro-2H-pyran-4-yl)-1,2-dihydropyridin-3-yl)amino)pyrazolo[1,5-a]pyrimidine-3-carboxamide] and `CNc1cc(Nc2cccn(C3CCOCC3)c2=O)nc2c(C(=O)N[C@H]3CC[C@H](OC)C3)cnn12` [I-1194] cannot be ordered by Kd: < 0.2 nM for the first, < 0.2 nM for the second.

Compared with `CNc1cc(-c2cn(C3CCOCC3)c3ncccc23)nc2c(C(=O)N[C@@H]3CCC[C@@H](O)C3)cnn12` (stereo in doubt) [I-1359, N-(3-hydroxycyclohexyl)-7-(methylamino)-5-(1-(tetrahydro-2H-pyran-4-yl)-1H-pyrrolo[2,3-b]pyridin-3-yl)pyrazolo[1,5-a]pyrimidine-3-carboxamide], `CNc1cc(Nc2cccn(C3CCOCC3)c2=O)nc2c(C(=O)N[C@@H]3CC[C@@H](OC)C3)cnn12` [I-1195] is higher in Kd: < 0.2 nM for the first, 1 to 10 nM for the second. The first binds more tightly here.

Compared with `CNc1cc(Nc2cc(C)nc(C)c2)nc2c(C(N)=O)cnn12` [I-13], `CNc1cc(Nc2cc(Cl)cnc2O[C@@H]2CCOC2)nc2c(C(N)=O)cnn12` [I-84] is lower in Kd: 1 to 10 nM for the first, 0.2 to 1 nM for the second.

Compared with `NC(=O)c1cnn2c(N)cc(Nc3cc(Cl)cnc3O[C@@H]3CCOC3)nc12` [I-85], `CNc1cc(Nc2cc(Cl)cnc2OC(C)C)nc2c(C(=O)NC3COC3)cnn12` [I-87] is higher in Kd: 1 to 10 nM for the first, > 10 nM for the second. The first binds more tightly here.

Compared with `CNc1cc(Nc2cccnc2OC(C)C)nc2c(C(=O)NC3COC3)cnn12` [I-86], `CNc1cc(Nc2cccnc2OC)nc2c(C(=O)N[C@@H]3COC[C@@H]3O)cnn12` [I-519] is lower in Kd: > 10 nM for the first, < 0.2 nM for the second.

Compared with `CNc1cc(Nc2cccc(N3CCCC3=O)n2)nc2c(C(=O)NC3COC3)cnn12` [I-88], `CNc1cc(Nc2cccn([C@@H]3CCC[C@@H]3OC)c2=O)nc2c(C(=O)NC3CC3)cnn12` [I-524] is lower in Kd: > 10 nM for the first, 1 to 10 nM for the second.

Compared with `CNc1cc(Nc2cccnc2OC2CC2)nc2c(C(=O)N[C@H]3COC[C@H]3O)cnn12` [I-520], `CNc1cc(Nc2cccn(C3CC(F)(F)C3)c2=O)nc2c(C(=O)N[C@@H]3CC[C@H]3O)cnn12` [I-1198] is lower in Kd: 0.2 to 1 nM for the first, < 0.2 nM for the second. The second binds more tightly here.

Compared with `CNc1cc(Nc2cc(F)cn(C3CCCOC3)c2=O)nc2c(C(=O)N[C@@H]3C[C@@H]3F)cnn12` (some centres unmarked) [I-521], `CNc1cc(Nc2cccn(C3CC(F)(F)C3)c2=O)nc2c(C(=O)N[C@H]3CC[C@@H]3O)cnn12` [I-1199] is higher in Kd: < 0.2 nM for the first, 0.2 to 1 nM for the second. The first binds more tightly here.

Compared with `CNc1cc(Nc2cc(C(F)(F)F)cn(-c3cnn(C)c3)c2=O)nc2c(C(=O)NC3CC3)cnn12` [I-523], `CNc1cc(Nc2cccn([C@H]3CCC[C@H]3OC)c2=O)nc2c(C(=O)NC3CC3)cnn12` [I-525] is higher in Kd: 0.2 to 1 nM for the first, > 10 nM for the second. The first binds more tightly here.

`CNc1cc(Nc2cccn([C@H]3C[C@@H]3OC)c2=O)nc2c(C(=O)N[C@@H]3CC[C@H]3OC)cnn12` [I-1186] and `CNc1cc(Nc2cccn([C@H]3C[C@@H]3OC)c2=O)nc2c(C(=O)N[C@H]3CC[C@@H]3OC)cnn12` [I-1187] cannot be ordered by Kd: < 0.2 nM for the first, < 0.2 nM for the second.

First: CNc1cc(Nc2cccn(-c3ccc(C)nc3)c2=O)nc2c(C(=O)N[C@H]3CCC[C@H](OC)C3)cnn12 [I-1188]
Second: CNc1cc(Nc2cccn(-c3ccc(C)nc3)c2=O)nc2c(C(=O)N[C@@H]3CCC[C@@H](OC)C3)cnn12 [I-1189]
The Kd of the first is higher: 1 to 10 nM for the first, < 0.2 nM for the second.

`CNc1cc(Nc2cccn([C@@H]3CCC[C@H](O)C3)c2=O)nc2c(C(=O)N[C@H]3CC[C@@H]3OC)cnn12` [I-1191] and `CNc1cc(Nc2cccn([C@H]3CCC[C@@H](O)C3)c2=O)nc2c(C(=O)N[C@@H]3CC[C@H]3OC)cnn12` [I-1192] cannot be ordered by Kd: < 0.2 nM for the first, < 0.2 nM for the second.

`CNc1cc(Nc2cccn([C@H]3CCC[C@@H](O)C3)c2=O)nc2c(C(=O)N[C@H]3CC[C@@H]3OC)cnn12` [I-1193] and `CNc1cc(Nc2cccn(C3CCOCC3)c2=O)nc2c(C(=O)N[C@H]3CCCC[C@]3(C)O)cnn12` [I-1197] cannot be ordered by Kd: < 0.2 nM for the first, < 0.2 nM for the second.
